Laboratory results reported in patent publication US8012959B2, “Diaminopyrimidinecarboxamide derivative” (Astellas Pharma Inc., priority 2002, dated 2011).

Experiments:
T cells = assay: Th2 differentiation (IL-4 production by differentiated mouse spleen T cells, ELISA); type: cell-based; conditions: inhibition of Th2 differentiation (IL-4 production, ELISA), C57BL/6 mouse spleen T cells
Experimental: Measurement of Th2 Differentiation
T cells were prepared by removing nylon wool (Wako Pure Chemical Industries)-adhering cells from C57BL/6 mouse (Charles River Japan) spleen cells. Using a 96 well plate to which an anti-CD3ε antibody (10 μg/ml) (Sederlane) had been immobilized in advance, T cells (2×10^5 cells/0.2 ml) were inoculated under stimulation with anti-CD28 antibody (1 μg/ml) (Pharmingen), IL-2 (10 ng/ml) (Peprotech) and IL-4 (10 ng/ml) (Peprotech). After 2 days of the culturing, total volume of the cell suspension was diluted to 2 ml with a medium containing IL-2 (10 ng/ml) and IL-4 (10 ng/ml). The differentiation was induced by further carrying out the culturing for 3 days. By counting the cell density, the cells after differentiation were adjusted to 1×10^6 cells/ml and inoculated into a 96 well plate immobilized with the anti-CD3 ε antibody, in order to induce IL-4 production. The supernatant after 24 hours of the stimulation was recovered, and the IL-4 production was determined by an ELISA method. The antibody used in the ELISA was purchased from Pharmingen. Also, an HRPO-labeled streptoavidin (Amersham Pharmacia) was used in the detection of biotinylated antibody, and a peroxidase color developing reagent (Sumitomo Bakelite) was used in the HRPO color development. In the case of the evaluation of compounds, compound dilutions were added to the wells before the addition of T cells, at the time of the dilution 2 days later, compounds equivalent to the initial concentration were added. Also, regarding the dilution of compounds, dilution was carried out using 10% FBS-containing RPMI 1640 such that the final concentration of DMSO in which each compound was dissolved became 0.1% or less. Inhibitory activity of each tested compound was evaluated in which the IL-4 production when DMSO was added instead of the compound was regarded as 100%, and the IL-4 production when anti-CD28 antibody and IL-4 were not added as 0%.

[1] = system: antigen-induced eosinophil infiltration; assay: Mouse asthma model (OA-sensitized, antigen-induced eosinophil infiltration in alveolar lavage fluid); type: in vivo; conditions: hydrochloride, oral administration, 1 mg/kg, for 3 days, female Balb/c mice
Experimental: Evaluation Using Mouse Asthma Model
Active sensitization of female Balb/c mice were carried out by intraperitoneally administering ovalbumin (OA) and an adjuvant, aluminum hydroxide gel (alum), twice. Mice were exposed to OA by inhalation 12 days after the initial sensitization and sacrificed by bloodletting 72 hours after the exposure, and then alveolar lavage was carried out. A compound to be tested or a control, 0.5% methyl cellulose, was orally administered for 3 days from before the OA exposure to before the alveolar lavage. After the measurement of total white blood cell count in the alveolar lavage fluid, cell smear preparations were stained to calculate existing ratio of eosinophil based on its morphological characteristics. The total number of eosinophils was calculated from the total white blood cell count and existing ratio of respective kinds of cells.

STAT 6 = target: T1, STAT 6 (Mus musculus, UniProt P52633); assay: STAT 6-dependent reporter activity (IL-4-stimulated CI/FW4 luciferase reporter cell); type: cell-based, human
T1 construct: An STAT 6 reporter cell CI/FW4 was constructed by the above operation; endogenous in cells; host or cells: CI/FW4 (FW4 cell stably carrying the pGL2-CI/bs luciferase reporter)
T1 sequence (P52633 1-837): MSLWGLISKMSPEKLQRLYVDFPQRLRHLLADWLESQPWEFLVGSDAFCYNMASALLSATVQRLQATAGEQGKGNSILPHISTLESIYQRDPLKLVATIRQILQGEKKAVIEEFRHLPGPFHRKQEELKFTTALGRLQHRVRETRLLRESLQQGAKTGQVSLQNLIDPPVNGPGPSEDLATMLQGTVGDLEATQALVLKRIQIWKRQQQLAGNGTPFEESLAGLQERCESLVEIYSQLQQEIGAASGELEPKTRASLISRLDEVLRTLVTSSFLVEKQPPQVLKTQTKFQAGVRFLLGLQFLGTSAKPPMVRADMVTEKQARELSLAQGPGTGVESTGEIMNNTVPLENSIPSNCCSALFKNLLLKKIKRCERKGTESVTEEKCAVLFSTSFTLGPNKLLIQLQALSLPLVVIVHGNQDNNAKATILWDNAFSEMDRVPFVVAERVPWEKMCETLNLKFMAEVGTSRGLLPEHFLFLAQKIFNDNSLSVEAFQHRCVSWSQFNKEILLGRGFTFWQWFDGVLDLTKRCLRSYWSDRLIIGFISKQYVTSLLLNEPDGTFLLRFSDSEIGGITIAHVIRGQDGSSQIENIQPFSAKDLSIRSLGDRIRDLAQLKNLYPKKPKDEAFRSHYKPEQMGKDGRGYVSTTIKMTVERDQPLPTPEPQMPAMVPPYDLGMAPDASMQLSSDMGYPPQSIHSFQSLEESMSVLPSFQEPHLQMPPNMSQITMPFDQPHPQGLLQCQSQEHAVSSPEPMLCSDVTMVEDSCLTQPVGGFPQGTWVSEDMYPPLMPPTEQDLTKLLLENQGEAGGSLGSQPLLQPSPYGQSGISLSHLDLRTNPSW
Experimental: Measurement of STAT 6-Dependent Reporter Activity 1) Construction of STAT 6 Reactive Reporter Plasmid A STAT 6 reporter plasmid pGL2-CI was prepared by the following method. […] Also, […] sequence DNA molecules (SEQ ID NOs:3 and 4) contained in the adenovirus major late promoter were annealed and inserted into BglII and HindIII sites of the same vector. Thereafter, pGL2-CI/bs was constructed by inserting the blasticidin resistance gene of pUCSV-BD (Funakoshi) into BamHI site of the constructed pGL2-CI. 2) Construction of STAT 6 Reporter Cell Gene transfer of […] into a human IL-4 reactive cell FW4 cell (Mol. Cell. Biol., 14: 5433-5440) was carried out by the electroporation method (320 V, 960 μF/0.4 cm cuvette (Nippon Bio-Rad Laboratories)), and 6 μg/ml of blasticidin (Funakoshi) was added 40 hours thereafter to select a resistant cell. Confirmation of constant transfer of the reporter plasmid was carried out by detecting luciferase induce by IL-4 stimulation. An STAT 6 reporter cell CI/FW4 was constructed by the above operation. 3) STAT Reporter Assay Using CI/FW4 Cell Stimulation of the CI/FW4 cell (1×10^4 cells/0.1 ml) with 10 ng/ml of human IL-4 (Genzyme Techne) was carried out using a white 96 well plate (Nunc). In the case of the evaluation of compounds, compound dilutions were added to the wells before inoculating the cells into the 96 well plate. […] Thereafter, 50 μl of a luciferase substrate solution (10 mM Tris-HCl pH 7.8, 5 mM luciferin, 2 mM coenzyme A, 2 mM ATP, 0.5 mM MgCl2 and 2 mM Mg(OH)2) was added, followed by stirring for 1 minute. Then, the luciferase activity was measured using ML3000 luminometer (Dynatech Laboratories, Inc). Inhibitory activities of tested compounds were evaluated in which the luminescence intensity (relative light unit: […] The results are shown in the following Table 26.

[2] = inhibition ratio at 0.1 μM compound, IL-4-stimulated CI/FW4 cell, luciferase
[3] = inhibition ratio at 1 μM compound, IL-4-stimulated CI/FW4 cell, luciferase

Compound | Inh (%) (T cells) | inhibition of antigen-induced eosinophil infiltration [1] | inhibition at 0.1 µM (STAT 6; [2]) [%] | inhibition at 1 µM (STAT 6; [3]) [%] | Inh (%) 0.1 μM (STAT 6; [2]) [%] | Inh (%) 1 μM (STAT 6; [3]) [%] | inhibition of STAT 6-dependent reporter activity (activity similar to the compounds of Table 26) (STAT 6; CI/FW4 cell, 10 ng/ml human IL-4, luciferase)
NC(=O)c1cnc(Nc2ccc(N3CCOCC3)cc2)nc1NCc1ccccc1 [Example 3, 4-benzylamino-2-{[4-(morpholin-4-yl)phenyl]amino}pyrimidine-5-carboxamide] | 98 | about 60% | 100 | 100 |  |  | 
COc1ccccc1CNc1nc(Nc2ccc(N3CCOCC3)cc2)ncc1C(N)=O [Example 35] | 94 |  |  |  | 95 | 100 | 
Cc1cccc(Nc2nc(NCCc3ccc(O)c(Cl)c3)ncc2C(N)=O)c1 [Production Example 99] | 85 |  |  |  |  |  | good activity
